The target in the assay is T1, Recombinant human IKKβ (residues 1-737) (Homo sapiens, UniProt O14920).
T1 construct: Recombinant human IKKβ (residues 1-737); GST (C); made in house
T1 sequence (O14920 1-737): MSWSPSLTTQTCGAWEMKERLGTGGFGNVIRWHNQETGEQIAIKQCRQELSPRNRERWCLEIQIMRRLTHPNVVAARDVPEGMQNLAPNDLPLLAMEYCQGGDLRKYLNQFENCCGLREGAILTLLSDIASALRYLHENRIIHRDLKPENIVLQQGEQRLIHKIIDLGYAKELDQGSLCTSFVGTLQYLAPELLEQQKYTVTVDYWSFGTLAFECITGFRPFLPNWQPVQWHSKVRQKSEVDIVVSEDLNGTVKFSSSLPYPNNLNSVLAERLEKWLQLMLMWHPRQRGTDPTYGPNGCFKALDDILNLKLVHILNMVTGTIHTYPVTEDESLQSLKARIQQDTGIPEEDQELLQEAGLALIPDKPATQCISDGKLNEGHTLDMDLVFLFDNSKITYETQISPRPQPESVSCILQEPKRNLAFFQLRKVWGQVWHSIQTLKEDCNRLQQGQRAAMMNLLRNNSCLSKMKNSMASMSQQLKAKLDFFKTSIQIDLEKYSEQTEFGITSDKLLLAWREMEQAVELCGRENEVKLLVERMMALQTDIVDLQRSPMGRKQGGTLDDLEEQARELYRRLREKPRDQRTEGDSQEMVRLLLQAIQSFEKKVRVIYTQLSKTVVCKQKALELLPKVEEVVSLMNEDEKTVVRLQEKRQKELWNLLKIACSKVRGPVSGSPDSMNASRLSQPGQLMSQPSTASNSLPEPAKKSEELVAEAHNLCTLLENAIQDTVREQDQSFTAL
The assay is described as follows: IKK2 Assay (TR-FRET). Type of assay: biochemical. Conditions: activity against IKK2, IKK2 5 nM, GST-IκBα substrate 25 nM, ATP 1 μM, 30 minutes at room temperature. As to the method: Recombinant human IKKβ (residues 1-737) was expressed in baculovirus as a C-terminal GST-tagged fusion protein, and its activity was assessed using a time-resolved fluorescence resonance energy transfer (TR-FRET) assay. Briefly, IKK2 (5 nM final) diluted in assay buffer (50 mM HEPES, 10 mM MgCl2, 1 mM CHAPS pH 7.4 with 1 mM DTT and 0.01% w/v BSA) was added to wells containing various concentrations of compound or DMSO vehicle (3% final). The reaction was initiated by the addition of GST-IκBα substrate (25 nM final)/ATP (1 μM final), in a total volume of 30 μL. The reaction was incubated for 30 minutes at room temperature, then terminated by the addition of 15 μL of 50 mM EDTA. Detection reagent (15 μl) in buffer (100 mM HEPES pH 7.4, 150 mM NaCl and 0.1% w/v BSA) containing antiphosphoserine-licBa-32/36 monoclonal antibody 12C2 (Cell Signalling Technology, Beverly Mass., USA) labelled with W-1024 europium chelate (Wallac OY, Turku, Finland), and an APC-labelled anti-GST antibody (Prozyme, San Leandro, Calif., USA) was added and the reaction was further incubated for 60 minutes at room temperature. The degree of phosphorylation of GST-IκBα was measured using a Packard Discovery plate reader (Perkin-Elmer Life Sciences, Pangbourne, UK) as a ratio of specific 665 nm energy transfer signal to reference europium 620 nm signal.
(In general: TR-FRET usually uses a lanthanide donor and a delayed reading to cut background.)

Data on 1 compound can be found in US20080269291A1, “Chemical Compounds” (priority 2005, published 2008).

SMILES strings stand for the structures.

The IC50 is the concentration needed to halve the response being measured.

Turning to `CCS(=O)(=O)N1CCC(c2c[nH]c3c(C(N)=O)cc(S(=O)(=O)c4ccc(C)cc4)cc23)CC1` [Example 48, 3-[1-(ethylsulfonyl)-4-piperidinyl]-5-[(4-methylphenyl)sulfonyl]-1H-indole-7-carboxamide], the IC50 is 25.1 µM.
